Source: the Deep4Chem optical property database
Several values for one entry are separate records, joined by “and”; a condition that tells them apart may be missing. Equal entries are not always repeated. Each block holds one compound with its values, some of them ahead of it.

Assay: solvent given as SMILES

- absorption maximum (in C1CCOC1): 352 nm
Compound: C(=C(c1ccccc1)c1ccccc1)c1ccc(C=C(c2ccccc2)c2ccccc2)cc1

- absorption maximum (in ClCCl): 395 nm
Compound: CCCCCCn1c(=O)c2c3oc4ccccc4oc3c3c(=O)n(CCCCCC)c(=O)c3c2c1=O

- absorption maximum (in CC#N): 588 nm
- absorption maximum (in CCCCCC): 599 nm
- absorption maximum (in CCOC(C)=O): 593 nm
- absorption maximum (in CO): 585 nm
- absorption maximum (in ClCCl): 596 nm
Compound: N#CSC1=CC2=C(c3ccccc3)c3cc(SC#N)c(N4CCOCC4)n3[B-](F)(F)[N+]2=C1N1CCOCC1

- absorption maximum (in ClCCl): 652 nm
Compound: CC(C)[Si](C#Cc1c2cc3ccccc3cc2c(C#Cc2ccccc2)c2cc3ccccc3cc12)(C(C)C)C(C)C

- absorption maximum (in C1COCCO1): 340 nm
- absorption maximum (in CC#N): 342 nm
- absorption maximum (in CO): 345 nm
- absorption maximum (in ClCCl): 338 nm
Compound: COC(=O)c1nc2c(N)nc(N(C)C)nc2n1Cc1ccccc1

- absorption maximum (in ClC(Cl)Cl): 581 nm
Compound: CC(C)(C)c1ccc(Oc2cc3c4c(cc(Oc5ccc(C(C)(C)C)cc5)c5c6c(Oc7ccc(C(C)(C)C)cc7)cc7c8c(cc(Oc9ccc(C(C)(C)C)cc9)c(c2c45)c86)C(=O)N(Cc2ccccc2)C7=O)C(=O)N(Cc2ccccc2)C3=O)cc1

- absorption maximum (in ClCCl): 388 nm
Compound: c1ccc(B2Nc3cc4c(cc3-c3occc32)NB(c2ccccc2)c2ccoc2-4)cc1

- absorption maximum (in CC#N): 350 nm
- absorption maximum (in CCCCCC): 351 nm
- absorption maximum (in CO): 355 nm
- absorption maximum (in CS(C)=O): 352 nm
- absorption maximum (in ClC(Cl)Cl): 355 nm
Compound: CCC1=C(C)C2=Cc3cscc3B(O)N2C1=O

- absorption maximum (in ClCCl): 348 nm
Compound: CC(C)(C)c1ccc2c3ccccc3c3cncnc3c2c1

- absorption maximum (in ClCCl): 410 nm
Compound: CCN(CC)c1ccc2cc(-c3nc4c5ccccc5c5ccccc5c4n3-c3ccc(C(C)(C)C)cc3)c(=O)oc2c1

- absorption maximum (in CCO): 436 nm
Compound: CN1C(=Cc2c([O-])c(=O)/c2=N\C#N)C(C)(C)c2ccccc21

- absorption maximum (in CS(C)=O): 411 nm
Compound: Brc1ccc2cc3c4ccccc4nc(-c4ccco4)c3n2c1

- absorption maximum (in CC#N): 341 nm
- absorption maximum (in CCCCOCCCC): 341 nm
- absorption maximum (in CO): 340 nm
Compound: Clc1nc(Cl)nc(Nc2ccc3ccc4cccc5ccc2c3c45)n1

- absorption maximum (in C1CCOC1): 518 nm
Compound: CSC1=C(C)C2=C(c3ccc(C)cc3)c3c(C)c(Cl)c(C)n3[B-](F)(F)[N+]2=C1C

- absorption maximum (in CO): 290 nm
Compound: N#Cc1c(-n2nnc3c2-c2ccccc2CN(C(=O)CCN)c2ccccc2-3)n([C@H]2C[C@H](O)[C@@H](CO)O2)c2ncnc(N)c12

More lines, now with the values behind:

Compound: Cc1ccc(-n2c3ccccc3c3cc(C=C(C#N)C#N)ccc32)cc1
- absorption maximum (in C1CCOC1): 407 nm
- absorption maximum (in CC#N): 402 nm
- absorption maximum (in CC(C)=O): 402 nm
- absorption maximum (in CCOC(C)=O): 400 nm
- absorption maximum (in CO): 402 nm
- absorption maximum (in CS(C)=O): 407 nm
- absorption maximum (in Cc1ccccc1): 406 nm
- absorption maximum (in ClC(Cl)Cl): 413 nm

Compound: Cc1ccc(C#Cc2ccc3ccc4cccc5ccc2c3c45)cc1
- absorption maximum (in CCCCCC): 362 nm
- absorption maximum (in CCO): 362 nm
- absorption maximum (in CCOC(C)=O): 362 nm
- absorption maximum (in ClCCl): 365 nm

Compound: CCCCCCCCCCC1(CCCCCCCCCC)c2cc(N3C(=O)c4ccc5c6ccc7c8c(ccc(c9ccc(c4c59)C3=O)c86)C(=O)N(c3ccc4c(c3)C(CCCCCCCCCC)(CCCCCCCCCC)c3cc(N(c5ccccc5)c5ccccc5)ccc3-4)C7=O)ccc2-c2ccc(N(c3ccccc3)c3ccccc3)cc21
- absorption maximum (in Cc1ccccc1): 528 nm
- absorption maximum (in ClCCl): 527 nm

Compound: CCC1=C(C)C2=C(/C=C/Sc3ccccc3)c3c(C)c(CC)c(C)n3[B-](F)(F)[N+]2=C1C
- absorption maximum (in ClCCl): 528 nm

Compound: N#Cc1c(N2c3ccccc3C(c3ccccc3)(c3ccccc3)c3ccccc32)cccc1N1c2ccccc2C(c2ccccc2)(c2ccccc2)c2ccccc21
- absorption maximum (in Cc1ccccc1): 369 nm

Compound: CC1(C)CC(=O)C2=C(C1)Oc1ccc3ccc(O)cc3c1C2c1ccccn1 (stereo not given)
- absorption maximum (in C1CCOC1): 335 nm
- absorption maximum (in C1COCCO1): 335 nm
- absorption maximum (in CC#N): 334 nm
- absorption maximum (in CCCCCCC): 276 nm
- absorption maximum (in CCO): 334 nm
- absorption maximum (in CO): 341 nm
- absorption maximum (in O): 274 nm

Compound: CC1(C)C(/C=C/C2=C(Cl)C(=C/C=C3/N(CCCCCC(=O)O)c4ccccc4C3(C)C)/CCC2)=[N+](CCCCCC(=O)O)c2ccccc21
- absorption maximum (in CO): 782 nm

Compound: CCN(CC)c1ccc(-c2ccc(-c3nc4ccccc4c(=O)[nH]3)s2)cc1
- absorption maximum (in CC#N): 404 nm
- absorption maximum (in Cc1ccccc1): 410 nm

Compound: CC(=O)O[B-]1(OC(C)=O)OC(/C=C/C=C/c2ccccc2)=CC(/C=C/C=C/c2ccccc2)=[O+]1
- absorption maximum (in C1CCOC1): 468 nm
- absorption maximum (in CC#N): 472 nm
- absorption maximum (in CC(C)=O): 468 nm
- absorption maximum (in CS(C)=O): 478 nm
- absorption maximum (in Cc1ccccc1): 470 nm
- absorption maximum (in ClC(Cl)Cl): 474 nm
- absorption maximum (in ClCCl): 474 nm

Compound: COc1ccc2c3c(cccc13)C(=O)c1ccccc1-2
- absorption maximum (in CC(C)=O): 421.05 nm
- absorption maximum (in CCCCOCCCC): 412.03 nm
- absorption maximum (in CCOC(C)=O): 418.06 nm
- absorption maximum (in CCOCC): 414.08 nm
- absorption maximum (in Clc1ccccc1): 423.01 nm
- absorption maximum (in O=C1CCCCC1): 421.94 nm

Compound: CCCCCCc1ccc(-n2c3[n+](c4c5ccccc5c5ccccc5c42)[B-](C)(C)c2ccc4ccccc4c2-3)cc1
- absorption maximum (in C1CCOC1): 392 nm
- absorption maximum (in CC#N): 385 nm
- absorption maximum (in Cc1ccccc1): 393 nm
- absorption maximum (in ClCCl): 390 nm

Compound: CC[N+](CC)=c1ccc2c(-c3ccccc3C(=O)O)c3oc4cc(N)ccc4c3oc-2c1
- absorption maximum (in CCO): 572 nm
- absorption maximum (in ClCCl): 581 nm
- absorption maximum (in O): 581 nm

Compound: COc1ccc(C#Cc2ccccc2C#Cc2ccc(OC)cc2)cc1
- absorption maximum (in CC#N): 320 nm

Compound: Cc1ccc(N(C)C)cc1C1=C2C=CC(=[N+](C)C)C=C2[Si](C)(C)c2cc(N(C)C)ccc21
- absorption maximum (in O): 646 nm

Compound: CCC1=C(C)C(=O)n2c1cc1c(C)c(CCC(=O)O)c(C)n1c2=O
- absorption maximum (in CC#N): 408 nm
- absorption maximum (in CC(C)=O): 413 nm
- absorption maximum (in CO): 425 nm
- absorption maximum (in CS(C)=O): 426 nm
- absorption maximum (in ClC(Cl)Cl): 428 nm
- absorption maximum (in c1ccccc1): 421 nm

Compound: CC1=[N+]2C(=C(c3ccc(N(C)C)cc3)c3ccc(C)n3[B-]2(F)F)C=C1
- absorption maximum (in C1CCCCC1): 508 nm
- absorption maximum (in C1CCOC1): 506 nm
- absorption maximum (in CC#N): 503 nm
- absorption maximum (in CC(=O)C(C)(C)C): 505 nm
- absorption maximum (in CC(C)=O): 504 nm
- absorption maximum (in CCCCCC): 507 nm
- absorption maximum (in CCOC(C)=O): 505 nm and 504 nm
- absorption maximum (in CO): 504 nm and 503 nm
- absorption maximum (in Cc1ccccc1): 509 nm
- absorption maximum (in ClC(Cl)Cl): 509 nm

Compound: CCOC(=O)CCCCCn1c2ccccc2c(=O)c2cc(I)ccc21
- absorption maximum (in CO): 414 nm

Compound: c1ccc2c(c1)-c1ccccc1C21c2ccccc2-c2oc3c(c21)C1(c2ccccc2-c2ccccc21)c1ccccc1-3
- absorption maximum (in C1CCOC1): 367 nm

Compound: Cc1ccc(N(c2ccc(C)cc2)c2ccc(-c3c4ccccc4c(-c4ccc(N(c5ccc(C)cc5)c5ccc(C)cc5)cc4)c4nsnc34)cc2)cc1
- absorption maximum (in Cc1ccccc1): 538 nm
- absorption maximum (in ClCCl): 536 nm

Compound: Cc1cc(C)c(B(c2cc(-c3ccc(C(F)(F)F)cc3)sc2-c2sc(-c3ccc(C(F)(F)F)cc3)cc2P(=O)(c2ccccc2)c2ccccc2)c2c(C)cc(C)cc2C)c(C)c1
- absorption maximum (in CO): 389 nm

Compound: CC/[NH+]=c1\cc2oc3cc(NCCC(=O)NC(CCC(=O)OC)C(=O)OC)c4ccccc4c3nc-2cc1C (stereo not given)
- absorption maximum (in CCO): 600 nm
- absorption maximum (in O): 600 nm

Compound: Cc1ccc(C2=[N+]3C(=Cc4ccc(C)n4[B-]3(F)F)c3ccccc32)[nH]1
- absorption maximum (in C1CCOC1): 599 nm
- absorption maximum (in CC#N): 592 nm
- absorption maximum (in CCCCCC): 602 nm
- absorption maximum (in CO): 595 nm
- absorption maximum (in Cc1ccccc1): 606 nm
- absorption maximum (in ClCCl): 600 nm
